How the values were obtained:
[1] = test system: KATO-III cell line (FGFR2 amplification); assay: Cancer cell line cell viability assay (Cell Titer-Glo), 72 hr; format: cell-based; settings: Homo sapiens, KATO III
Method in brief: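 Cells seeded at 5,000-20,000/well, incubated overnight, then treated with a 9-dose, 4-fold dilution series from 3 μM in triplicate at 37° C, 5% CO2. Viability read by Cell Titer-Glo 2.0 luminescence as percent of DMSO control; IC50 from 4-parameter variable-slope sigmoidal fit.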

[2] = test system: KG-1 cell line (FGFR 1-fusion); assay: as above; format: cell-based; settings: Homo sapiens, KG-1, KG-1 cell line (FGFR1-fusion)
Method in brief: (§1)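 ATP-based luminescence (Cell Titer-Glo 2.0) measured viability after 72 h (KG-1, RT112/84) or 120 h (MDA-MB-453, HuH7) compound exposure. Dosing was nine 4-fold steps starting at 3 μM, in triplicate, on overnight-plated cells. IC50 came from a variable-slope 4-parameter fit of % DMSO control.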

[3] = test system: RT112/84 cell line (FGFR3-fusion); assay: as above; format: cell-based; settings: Homo sapiens, RT112/84, RT112/84 cell line (FGFR3-fusion)
Method in brief: as §1

FGFR1 = target: T1, FGFR1 (Homo sapiens, UniProt P11362); assay: Kinase binding assay (kinase-tagged T7 phage, affinity beads, qPCR), Kd; settings: read-out: FGFR1 (Kd nM)
T1 construct: made in house; host or cells: E. coli (BL21-derived), T7 phage
Method in brief: (§2)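 Kd obtained by Levenberg–Marquardt Hill-equation fit (slope −1) to qPCR-measured kinase retained on ligand-coated streptavidin beads.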

FGFR4 = target: T2, FGFR4 (Homo sapiens, UniProt P22455); assay: as above; settings: read-out: FGFR4 (Kd nM)
T2 construct: made in house; host or cells: E. coli (BL21-derived), T7 phage
Method in brief: as §2

FGFR3 = target: T3, FGFR3 (Homo sapiens, UniProt P22607); assay: as above; settings: read-out: FGFR3 (Kd nM)
T3 construct: made in house; host or cells: E. coli (BL21-derived), T7 phage
Method in brief: as §2

FGFR2 = target: T4, FGFR2 (Homo sapiens, UniProt P21802); assay: as above; settings: read-out: FGFR2 (Kd nM)
T4 construct: made in house; host or cells: E. coli (BL21-derived), T7 phage
Method in brief: as §2

[4] = test system: HuH7 cell line (FGF19 amplification); assay: Cancer cell line cell viability assay (Cell Titer-Glo), 120 hr; format: cell-based; settings: Homo sapiens, Huh-7
Method in brief: as §1

T2 sequence (P22455 22-802): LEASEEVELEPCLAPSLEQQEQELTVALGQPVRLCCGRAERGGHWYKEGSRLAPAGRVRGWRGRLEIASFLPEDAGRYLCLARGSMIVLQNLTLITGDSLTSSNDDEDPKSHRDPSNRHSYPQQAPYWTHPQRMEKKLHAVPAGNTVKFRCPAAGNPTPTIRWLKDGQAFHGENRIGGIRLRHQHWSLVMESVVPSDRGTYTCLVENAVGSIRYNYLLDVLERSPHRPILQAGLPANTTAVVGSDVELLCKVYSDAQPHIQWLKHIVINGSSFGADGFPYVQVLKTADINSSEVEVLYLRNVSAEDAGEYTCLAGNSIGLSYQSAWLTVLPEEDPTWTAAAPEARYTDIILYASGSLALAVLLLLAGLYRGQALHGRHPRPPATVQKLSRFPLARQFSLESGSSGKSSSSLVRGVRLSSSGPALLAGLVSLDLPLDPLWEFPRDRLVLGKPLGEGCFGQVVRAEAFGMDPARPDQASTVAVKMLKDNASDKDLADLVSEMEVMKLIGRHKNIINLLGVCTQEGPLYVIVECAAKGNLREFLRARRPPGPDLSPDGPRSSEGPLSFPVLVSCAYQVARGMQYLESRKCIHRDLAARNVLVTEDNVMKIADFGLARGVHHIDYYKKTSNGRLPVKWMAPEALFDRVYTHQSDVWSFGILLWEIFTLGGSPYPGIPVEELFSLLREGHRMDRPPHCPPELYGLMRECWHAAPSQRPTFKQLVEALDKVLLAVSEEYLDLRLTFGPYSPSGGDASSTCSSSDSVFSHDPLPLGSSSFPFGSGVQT
T4 sequence (P21802 22-821): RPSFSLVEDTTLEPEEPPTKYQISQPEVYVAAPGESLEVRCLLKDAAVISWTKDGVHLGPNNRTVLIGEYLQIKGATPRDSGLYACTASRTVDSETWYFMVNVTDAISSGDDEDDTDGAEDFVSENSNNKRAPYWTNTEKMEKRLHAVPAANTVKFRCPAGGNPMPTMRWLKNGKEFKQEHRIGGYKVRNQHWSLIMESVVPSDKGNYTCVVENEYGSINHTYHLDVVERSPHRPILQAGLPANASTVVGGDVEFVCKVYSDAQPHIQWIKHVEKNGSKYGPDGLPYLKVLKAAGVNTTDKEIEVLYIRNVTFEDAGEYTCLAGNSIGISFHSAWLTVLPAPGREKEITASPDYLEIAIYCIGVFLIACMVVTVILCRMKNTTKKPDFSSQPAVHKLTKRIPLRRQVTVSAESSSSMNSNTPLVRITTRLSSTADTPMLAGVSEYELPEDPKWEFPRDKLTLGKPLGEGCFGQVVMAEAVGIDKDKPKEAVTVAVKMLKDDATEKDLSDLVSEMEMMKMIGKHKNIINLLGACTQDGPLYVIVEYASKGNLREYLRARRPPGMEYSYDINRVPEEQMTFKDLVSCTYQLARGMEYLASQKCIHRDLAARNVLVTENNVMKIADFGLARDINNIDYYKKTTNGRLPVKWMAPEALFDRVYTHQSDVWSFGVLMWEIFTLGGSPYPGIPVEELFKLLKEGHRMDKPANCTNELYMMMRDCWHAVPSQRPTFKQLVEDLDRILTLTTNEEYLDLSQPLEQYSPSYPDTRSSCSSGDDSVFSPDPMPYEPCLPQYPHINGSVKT
T1 sequence (P11362 22-822): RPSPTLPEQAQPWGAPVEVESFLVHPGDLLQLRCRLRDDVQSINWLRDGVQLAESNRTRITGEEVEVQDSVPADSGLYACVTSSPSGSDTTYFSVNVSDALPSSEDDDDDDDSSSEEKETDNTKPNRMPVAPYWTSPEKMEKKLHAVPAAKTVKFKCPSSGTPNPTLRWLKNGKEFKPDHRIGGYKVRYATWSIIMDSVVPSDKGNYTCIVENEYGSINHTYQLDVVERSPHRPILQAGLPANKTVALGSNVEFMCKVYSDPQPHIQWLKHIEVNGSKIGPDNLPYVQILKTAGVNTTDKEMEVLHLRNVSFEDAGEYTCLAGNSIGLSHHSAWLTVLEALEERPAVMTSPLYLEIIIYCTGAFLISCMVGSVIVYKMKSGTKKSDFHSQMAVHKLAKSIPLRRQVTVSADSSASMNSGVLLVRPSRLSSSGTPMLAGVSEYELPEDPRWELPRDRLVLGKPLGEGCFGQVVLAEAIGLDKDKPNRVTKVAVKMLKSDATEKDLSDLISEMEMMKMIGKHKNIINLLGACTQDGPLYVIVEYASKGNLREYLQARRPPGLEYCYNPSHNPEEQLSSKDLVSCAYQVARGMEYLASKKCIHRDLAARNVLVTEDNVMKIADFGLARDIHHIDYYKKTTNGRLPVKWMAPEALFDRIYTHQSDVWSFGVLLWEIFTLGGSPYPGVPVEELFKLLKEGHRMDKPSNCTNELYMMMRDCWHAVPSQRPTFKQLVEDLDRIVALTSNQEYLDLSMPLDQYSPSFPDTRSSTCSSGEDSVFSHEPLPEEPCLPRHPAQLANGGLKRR
T3 sequence (P22607 23-806): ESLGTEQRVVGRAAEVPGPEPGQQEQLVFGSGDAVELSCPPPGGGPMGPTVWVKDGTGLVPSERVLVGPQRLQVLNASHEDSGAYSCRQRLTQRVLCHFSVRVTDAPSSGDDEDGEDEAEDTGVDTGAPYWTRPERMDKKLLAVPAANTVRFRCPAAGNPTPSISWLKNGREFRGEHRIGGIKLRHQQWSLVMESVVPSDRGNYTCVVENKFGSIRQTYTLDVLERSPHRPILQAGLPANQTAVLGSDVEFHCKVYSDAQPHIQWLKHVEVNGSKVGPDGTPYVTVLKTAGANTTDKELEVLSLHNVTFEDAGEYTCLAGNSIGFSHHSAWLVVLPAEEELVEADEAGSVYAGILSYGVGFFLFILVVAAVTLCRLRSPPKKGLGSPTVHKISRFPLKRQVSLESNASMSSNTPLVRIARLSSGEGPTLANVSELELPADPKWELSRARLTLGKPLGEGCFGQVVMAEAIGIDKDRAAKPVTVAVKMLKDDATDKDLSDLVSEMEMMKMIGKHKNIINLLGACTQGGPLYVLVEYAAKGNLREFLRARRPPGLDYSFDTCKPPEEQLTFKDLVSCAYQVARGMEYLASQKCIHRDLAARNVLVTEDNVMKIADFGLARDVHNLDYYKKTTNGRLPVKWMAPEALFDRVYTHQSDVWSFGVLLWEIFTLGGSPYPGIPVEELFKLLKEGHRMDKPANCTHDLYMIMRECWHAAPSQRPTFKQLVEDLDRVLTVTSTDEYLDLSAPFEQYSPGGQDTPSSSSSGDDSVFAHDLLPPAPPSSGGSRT

| Structure (SMILES) | IC50 [1] [nM] | IC50 [2] [nM] | IC50 [3] [nM] | Kd (FGFR1) [nM] | Kd (FGFR4) [nM] | Kd (FGFR3) [nM] | Kd (FGFR2) [nM] | IC50 [4] [nM] |
| --- | --- | --- | --- | --- | --- | --- | --- | --- |
| CCCC1(N)CN(c2ncc(-c3n[nH]c4cc(OC)c(O[C@H](C)c5c(Cl)cncc5Cl)cc34)cc2C#N)C1 [Example 360, (R)-2-(3-amino-3-propylazetidin-1-yl)-5-(5-(1-(3,5-dichloropyridin-4-yl)ethoxy)-6-methoxy-1H-indazol-3-yl)nicotinonitrile] | 50 to 200 | 50 to 200 | 0.1 to 50 | 1 to 50 | 1 to 50 | 1 to 50 | 1 to 50 | 0.1 to 50 |
| COc1cc2[nH]nc(-c3cnc(N4CC(C)(N(C)CC(C)C)C4)c(C#N)c3)c2cc1O[C@H](C)c1c(Cl)cncc1Cl [Example 343, (R)-5-(5-(1-(3,5-dichloropyridin-4-yl)ethoxy)-6-methoxy-1H-indazol-3-yl)-2-(3-(isobutyl(meth-yl)amino)-3-methylazetidin-1-yl)nicotinonitrile] | 200 to 1000 | > 1000 | 50 to 200 | 50 to 300 | 1 to 50 | 1 to 50 | 50 to 300 | 200 to 1000 |
| COc1cc2[nH]nc(-c3cnc(N4CC(C)(N(C)CC5CC5)C4)c(C#N)c3)c2cc1O[C@H](C)c1c(Cl)cncc1Cl [Example 344, (R)-2-(3-((cyclopropyl-methyl) (methyl)amino)-3-methylazetidin-1-yl)-5-(5-(1-(3,5-dichloropyridin-4-yl)ethoxy)-6-methoxy-1H-indazol-3-yl)nicotinonitrile] | 50 to 200 | 200 to 1000 | 0.1 to 50 | 1 to 50 | 1 to 50 | 1 to 50 | 1 to 50 | 0.1 to 50 |
| COc1cc2[nH]nc(-c3cnc(N4CC(N)(CC(C)(C)O)C4)c(C#N)c3)c2cc1O[C@H](C)c1c(Cl)cncc1Cl [Example 361, (R)-2-(3-amino-3-(2-hydroxy-2-methylpropyl)azetidin-1-yl)-5-(5-(1-(3,5-dichloropyridin-4-yl)ethoxy)-6-methoxy-1H-indazol-3-yl)nicotinonitrile] | 50 to 200 | 200 to 1000 | 50 to 200 | 1 to 50 | 1 to 50 | 1 to 50 | 1 to 50 | 50 to 200 |
| COc1cc2[nH]nc(-c3cnc(N4CC(C)(NC(=O)CN(C)C)C4)c(C#N)c3)c2cc1O[C@H](C)c1c(Cl)cncc1Cl [Example 340, (R)-N-(1-(3-cyano-5-(5-(1-(3,5-dichloropyridin-4-yl)ethoxy)-6-methoxy-1H-indazol-3-yl)pyridin-2-yl)-3-methylazetidin-3-yl)-2-(dimethylamino)-acetamide] | 50 to 200 | 50 to 200 | 0.1 to 50 | 1 to 50 | 1 to 50 |  | 1 to 50 | 0.1 to 50 |
| C=CCC1(N)CN(c2ncc(-c3n[nH]c4cc(OC)c(O[C@H](C)c5c(Cl)cncc5Cl)cc34)cc2C#N)C1 [Example 362, (R)-2-(3-ally1-3-aminoazetidin-1-yl)-5-(5-(1-(3,5-dichloropyridin-4-yl)ethoxy)-6-methoxy-1H-indazol-3-yl)nicotinonitrile] | 50 to 200 | 50 to 200 | 0.1 to 50 | 1 to 50 | 1 to 50 | 1 to 50 | 1 to 50 | 0.1 to 50 |
| CCC1(NC)CN(c2ncc(-c3n[nH]c4cc(OC)c(O[C@H](C)c5c(Cl)cncc5Cl)cc34)cc2C#N)C1 [Example 351, (R)-5-(5-(1-(3,5-Dichloropyridin-4-yl)ethoxy)-6-methoxy-1H-indazol-3-yl)-2-(3-ethyl-3-(methyl-amino)azeti-din-1-yl)nicotinonitrile diHCl] | 0.1 to 50 | 0.1 to 50 | 0.1 to 50 | 1 to 50 | 1 to 50 | 1 to 50 | 1 to 50 | 0.1 to 50 |
| COc1cc2[nH]nc(-c3cnc(N4CC(N)(CC(C)C)C4)c(C#N)c3)c2cc1O[C@H](C)c1c(Cl)cncc1Cl [Example 357, (R)-2-(3-amino-3-isobutylazetidin-1-yl)-5-(5-(1-(3,5-dichloropyridin-4-yl)ethoxy)-6-methoxy-1H-indazol-3-yl)nicotinonitrile] | 50 to 200 | 50 to 200 | 50 to 200 | 1 to 50 | 1 to 50 | 1 to 50 | 1 to 50 | 0.1 to 50 |

Results, then the compound that gave them:

| IC50 [1] [nM] | IC50 [2] [nM] | IC50 [3] [nM] | Kd (FGFR1) [nM] | Kd (FGFR4) [nM] | Kd (FGFR3) [nM] | Kd (FGFR2) [nM] | IC50 [4] [nM] | Structure (SMILES) |
| --- | --- | --- | --- | --- | --- | --- | --- | --- |
| 50 to 200 | 50 to 200 | 50 to 200 | 1 to 50 | 1 to 50 | 1 to 50 | 1 to 50 | 0.1 to 50 | COc1cc2[nH]nc(-c3cnc(N4CC(N)(CC5CC5)C4)c(C#N)c3)c2cc1O[C@H](C)c1c(Cl)cncc1Cl [Example 359] |
| 200 to 1000 | 50 to 200 | 0.1 to 50 | 1 to 50 | 1 to 50 | 1 to 50 | 1 to 50 | 0.1 to 50 | COc1cc2[nH]nc(-c3cnc(N4CC(N)(C5CCC5)C4)c(C#N)c3)c2cc1O[C@H](C)c1c(Cl)cncc1Cl [Example 356, (R)-2-(3-amino-3-cyclobutylazetidin-1-yl)-5-(5-(1-(3,5-dichloropyridin-4-yl)ethoxy)-6-methoxy-1H-indazol-3-yl)nicotinonitrile] |
| 50 to 200 | 0.1 to 50 | 0.1 to 50 | 1 to 50 | 1 to 50 | 1 to 50 | 1 to 50 | 0.1 to 50 | CCC1(N)CN(c2ncc(-c3n[nH]c4cc(OC)c(O[C@H](C)c5c(Cl)cncc5Cl)cc34)cc2C#N)C1 [Example 365, 2-(3-amino-3-ethyl-azetidin-1-yl)-5-[5-[(1R)-1-(3,5-dichloro-4-pyridyl)ethoxy]-6-methoxy-1H-indazol-3-yl]pyridine-3-carbonitrile] |
| 0.1 to 50 | 50 to 200 | 0.1 to 50 | 1 to 50 | 1 to 50 | 1 to 50 | 1 to 50 | 0.1 to 50 | COc1cc2[nH]nc(-c3cnc(N4CC(CC#N)(NCC5CC5)C4)c(C#N)c3)c2cc1O[C@H](C)c1c(Cl)cncc1Cl [Example 346, (R)-2-(3-(cyanomethyl)-3-((cyclo-propylmethyl)-amino)azetidin-1-yl)-5-(5-(1-(3,5-dichloropyridin-4-yl)ethoxy)-6-methoxy-1H-indazol-3-yl)nicotinonitrile] |
| 0.1 to 50 | 50 to 200 | 0.1 to 50 | 1 to 50 | 1 to 50 | 1 to 50 | 1 to 50 | 0.1 to 50 | COc1cc2[nH]nc(-c3cnc(N4CC(CC#N)(N5CCCC5)C4)c(C#N)c3)c2cc1O[C@H](C)c1c(Cl)cncc1Cl [Example 354, (R)-2-(3-(cyanomethyl)-3-(pyrrolidin-1-yl)azetidin-1-yl)-5-(5-(1-(3,5-dichloropyridin-4-yl)ethoxy)-6-methoxy-1H-indazol-3-yl)nicotinonitrile] |
| 0.1 to 50 | 50 to 200 | 0.1 to 50 | 1 to 50 | 1 to 50 | 1 to 50 | 1 to 50 | 0.1 to 50 | CNC1(CC#N)CN(c2ncc(-c3n[nH]c4cc(OC)c(O[C@H](C)c5c(Cl)cncc5Cl)cc34)cc2C#N)C1 [Example 153, (R)-2-(3-(cyanomethyl)-3-(methylamino)azetidin-1-yl)-5-(5-(1-(3,5-dichloropyridin-4-yl)ethoxy)-6-methoxy-1H-indazol-3-yl)nicotinonitrile] |
| 50 to 200 | 200 to 1000 | 0.1 to 50 | 1 to 50 | 1 to 50 | 1 to 50 | 1 to 50 | 0.1 to 50 | COc1cc2[nH]nc(-c3cnc(N4CC(CC#N)(NC(C)C)C4)c(C#N)c3)c2cc1O[C@H](C)c1c(Cl)cncc1Cl [Example 152, (R)-2-(3-(cyanomethyl)-3-(isopropylamino)azetidin-1-yl)-5-(5-(1-(3,5-dichloropyridin-4-yl)ethoxy)-6-methoxy-1H-indazol-3-yl)nicotinonitrile] |
| 0.1 to 50 | 50 to 200 | 0.1 to 50 | 1 to 50 | 1 to 50 | 1 to 50 | 1 to 50 | 0.1 to 50 | COc1cc2[nH]nc(-c3cnc(N4CC(N)(CC#N)C4)c(C#N)c3)c2cc1O[C@H](C)c1c(Cl)cncc1Cl [Example 345, 2-[3-amino-3-(cyanomethyl)azeti-din-1-yl]-5-[5-[(1R)-1-(3,5-dichloro-4-pyridyl)ethoxy]-6-methoxy-1H-indazol-3-yl]pyridine-3-carbonitrile] |
